Test system: 616215-338-R-J1-PDC complex spheroid viability
Assay: Anticancer human tumor 616215-338-R-J1-PDC patient-derived colon adenocarcinoma cell line growth inhibition [RAS]
Conditions: for IC50: curve of first compound; for viability, T/C: stronger effect = lower value
How it was run: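 Agents were tested in combination matrices in half-log decrements from a top concentration at or near clinical Cmax (10 microM if undetermined). Targets were multi-cell spheroids of tumour lines plus HUVEC and MSC stromal cells.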

[1] = second compound 0.000949 µM, first compound 0.00316 µM
[2] = second compound 0.000949 µM, first compound 0.01 µM
[3] = second compound 0.000949 µM, first compound 0.0316 µM
[4] = second compound 0.000949 µM, first compound 0.1 µM
[5] = second compound 0.000949 µM, first compound 0.316 µM
[6] = second compound 0.000949 µM, first compound 1 µM
[7] = second compound 0.003 µM, first compound 0.00316 µM
[8] = second compound 0.003 µM, first compound 0.01 µM
[9] = second compound 0.003 µM, first compound 0.0316 µM
[10] = second compound 0.003 µM, first compound 0.1 µM
[11] = second compound 0.003 µM, first compound 0.316 µM
[12] = second compound 0.003 µM, first compound 1 µM
[13] = second compound 0.00949 µM, first compound 0.00316 µM
[14] = second compound 0.00949 µM, first compound 0.01 µM
[15] = second compound 0.00949 µM, first compound 0.0316 µM
[16] = second compound 0.00949 µM, first compound 0.1 µM
[17] = second compound 0.00949 µM, first compound 0.316 µM
[18] = second compound 0.00949 µM, first compound 1 µM
[19] = second compound 0.03 µM, first compound 0.00316 µM
[20] = second compound 0.03 µM, first compound 0.01 µM
[21] = second compound 0.03 µM, first compound 0.0316 µM
[22] = second compound 0.03 µM, first compound 0.1 µM
[23] = second compound 0.03 µM, first compound 0.316 µM
[24] = second compound 0.03 µM, first compound 1 µM
[25] = second compound 0.0949 µM, first compound 0.00316 µM
[26] = second compound 0.0949 µM, first compound 0.01 µM
[27] = second compound 0.0949 µM, first compound 0.0316 µM
[28] = second compound 0.0949 µM, first compound 0.1 µM
[29] = second compound 0.0949 µM, first compound 0.316 µM
[30] = second compound 0.0949 µM, first compound 1 µM
[31] = second compound 0.3 µM, first compound 0.00316 µM
[32] = second compound 0.3 µM, first compound 0.01 µM
[33] = second compound 0.3 µM, first compound 0.0316 µM
[34] = second compound 0.3 µM, first compound 0.1 µM
[35] = second compound 0.3 µM, first compound 0.316 µM
[36] = second compound 0.3 µM, first compound 1 µM
[37] = second compound 0.000949 µM, first compound 0.000949 µM
[38] = second compound 0.000949 µM, first compound 0.003 µM
[39] = second compound 0.000949 µM, first compound 0.00949 µM
[40] = second compound 0.000949 µM, first compound 0.03 µM
[41] = second compound 0.000949 µM, first compound 0.0949 µM
[42] = second compound 0.000949 µM, first compound 0.3 µM
[43] = second compound 0.003 µM, first compound 0.000949 µM
[44] = second compound 0.003 µM, first compound 0.003 µM
[45] = second compound 0.003 µM, first compound 0.00949 µM
[46] = second compound 0.003 µM, first compound 0.03 µM
[47] = second compound 0.003 µM, first compound 0.0949 µM
[48] = second compound 0.003 µM, first compound 0.3 µM
[49] = second compound 0.00949 µM, first compound 0.000949 µM
[50] = second compound 0.00949 µM, first compound 0.003 µM
[51] = second compound 0.00949 µM, first compound 0.00949 µM
[52] = second compound 0.00949 µM, first compound 0.03 µM
[53] = second compound 0.00949 µM, first compound 0.0949 µM
[54] = second compound 0.00949 µM, first compound 0.3 µM
[55] = second compound 0.03 µM, first compound 0.000949 µM
[56] = second compound 0.03 µM, first compound 0.003 µM
[57] = second compound 0.03 µM, first compound 0.00949 µM
[58] = second compound 0.03 µM, first compound 0.03 µM
[59] = second compound 0.03 µM, first compound 0.0949 µM
[60] = second compound 0.03 µM, first compound 0.3 µM
[61] = second compound 0.0949 µM, first compound 0.000949 µM
[62] = second compound 0.0949 µM, first compound 0.003 µM
[63] = second compound 0.0949 µM, first compound 0.00949 µM
[64] = second compound 0.0949 µM, first compound 0.03 µM
[65] = second compound 0.0949 µM, first compound 0.0949 µM
[66] = second compound 0.0949 µM, first compound 0.3 µM
[67] = second compound 0.3 µM, first compound 0.000949 µM
[68] = second compound 0.3 µM, first compound 0.003 µM
[69] = second compound 0.3 µM, first compound 0.00949 µM
[70] = second compound 0.3 µM, first compound 0.03 µM
[71] = second compound 0.3 µM, first compound 0.0949 µM
[72] = second compound 0.3 µM, first compound 0.3 µM
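Further: spheroids exposed to agents for seven days before viability readout.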
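Wherever viability, T/C is given: 100% = DMSO vehicle control viability.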

C=CC(=O)N1CCN(c2nc(OCC3CCCN3C)nc3c(F)c(-c4nc(N)cc(C)c4C(F)(F)F)c(Cl)cc23)C(C)C1 (stereo not drawn) + CCn1c(-c2cc(N3CCN(C)CC3)cnc2C(C)OC)c2c3cc(ccc31)-c1csc(n1)CC(NC(=O)C1CC1C)C(=O)N1CCCC(N1)C(=O)OCC(C)(C)C2
IC50 (second compound 0.000949 µM): > 1000 nM | IC50 (second compound 0.003 µM): > 1000 nM | IC50 (second compound 0.00949 µM): > 1000 nM | IC50 (second compound 0.03 µM): < 3.16 nM | IC50 (second compound 0.0949 µM): < 3.16 nM | IC50 (second compound 0.3 µM): < 3.16 nM | viability, T/C [1]: 117% | viability, T/C [2]: 103% | viability, T/C [3]: 108% | viability, T/C [4]: 110% | viability, T/C [5]: 109% | viability, T/C [6]: 107% | viability, T/C [7]: 114% | viability, T/C [8]: 109% | viability, T/C [9]: 111% | viability, T/C [10]: 109% | viability, T/C [11]: 113% | viability, T/C [12]: 103% | viability, T/C [13]: 87.8% | viability, T/C [14]: 77.8% | viability, T/C [15]: 81.5% | viability, T/C [16]: 66.7% | viability, T/C [17]: 73.8% | viability, T/C [18]: 69.3% | viability, T/C [19]: 43% | viability, T/C [20]: 55.5% | viability, T/C [21]: 49.3% | viability, T/C [22]: 42.7% | viability, T/C [23]: 55.4% | viability, T/C [24]: 49.4% | viability, T/C [25]: 35% | viability, T/C [26]: 30.8% | viability, T/C [27]: 42.2% | viability, T/C [28]: 37.5% | viability, T/C [29]: 49.4% | viability, T/C [30]: 35.9% | viability, T/C [31]: 40.3% | viability, T/C [32]: 31.8% | viability, T/C [33]: 36% | viability, T/C [34]: 42.6% | viability, T/C [35]: 42.8% | viability, T/C [36]: 43.4%

CC1(C)CCC(Nc2ncc(C(F)(F)F)c(-c3c[nH]c4c(P(C)(C)=O)c(C#N)ccc34)n2)CN1 (stereo not drawn) + CCn1c(-c2cc(N3CCN(C)CC3)cnc2C(C)OC)c2c3cc(ccc31)-c1csc(n1)CC(NC(=O)C1CC1C)C(=O)N1CCCC(N1)C(=O)OCC(C)(C)C2
IC50 (second compound 0.000949 µM): 17.7 nM | IC50 (second compound 0.003 µM): 14.1 nM | IC50 (second compound 0.00949 µM): 7.66 nM | IC50 (second compound 0.03 µM): 7.94 nM | IC50 (second compound 0.0949 µM): < 0.949 nM | IC50 (second compound 0.3 µM): < 0.949 nM | viability, T/C [37]: 117% | viability, T/C [38]: 92.4% | viability, T/C [39]: 65.2% | viability, T/C [40]: 35.7% | viability, T/C [41]: 32.2% | viability, T/C [42]: 39.1% | viability, T/C [43]: 122% | viability, T/C [44]: 98.1% | viability, T/C [45]: 56.4% | viability, T/C [46]: 37% | viability, T/C [47]: 37.5% | viability, T/C [48]: 39.6% | viability, T/C [49]: 82.9% | viability, T/C [50]: 73.8% | viability, T/C [51]: 44.6% | viability, T/C [52]: 38.6% | viability, T/C [53]: 37.1% | viability, T/C [54]: 40.8% | viability, T/C [55]: 65.7% | viability, T/C [56]: 61.7% | viability, T/C [57]: 47.6% | viability, T/C [58]: 32.4% | viability, T/C [59]: 39% | viability, T/C [60]: 40.1% | viability, T/C [61]: 45.8% | viability, T/C [62]: 44.3% | viability, T/C [63]: 39.2% | viability, T/C [64]: 39.3% | viability, T/C [65]: 36.9% | viability, T/C [66]: 32.9% | viability, T/C [67]: 37.5% | viability, T/C [68]: 46% | viability, T/C [69]: 42% | viability, T/C [70]: 32.6% | viability, T/C [71]: 38.5% | viability, T/C [72]: 39.2%

CCc1c2c(nc3ccc(O)cc13)-c1cc3c(c(=O)n1C2)COC(=O)[C@]3(O)CC + CCn1c(-c2cc(N3CCN(C)CC3)cnc2C(C)OC)c2c3cc(ccc31)-c1csc(n1)CC(NC(=O)C1CC1C)C(=O)N1CCCC(N1)C(=O)OCC(C)(C)C2
IC50 (second compound 0.000949 µM): 12.4 nM | IC50 (second compound 0.003 µM): 6.6 nM | IC50 (second compound 0.00949 µM): 3.33 nM | IC50 (second compound 0.03 µM): < 0.949 nM | IC50 (second compound 0.0949 µM): < 0.949 nM | IC50 (second compound 0.3 µM): < 0.949 nM | viability, T/C [37]: 109% | viability, T/C [38]: 104% | viability, T/C [39]: 51.5% | viability, T/C [40]: 35.6% | viability, T/C [41]: 21.2% | viability, T/C [42]: 13.4% | viability, T/C [43]: 109% | viability, T/C [44]: 94.8% | viability, T/C [45]: 29.1% | viability, T/C [46]: 23.5% | viability, T/C [47]: 21.3% | viability, T/C [48]: 12.1% | viability, T/C [49]: 87.6% | viability, T/C [50]: 52.9% | viability, T/C [51]: 21% | viability, T/C [52]: 22.7% | viability, T/C [53]: 18.4% | viability, T/C [54]: 12.2% | viability, T/C [55]: 45.2% | viability, T/C [56]: 29.1% | viability, T/C [57]: 23.2% | viability, T/C [58]: 19.6% | viability, T/C [59]: 15.2% | viability, T/C [60]: 8.75% | viability, T/C [61]: 36.2% | viability, T/C [62]: 28.7% | viability, T/C [63]: 18.1% | viability, T/C [64]: 17.6% | viability, T/C [65]: 14.6% | viability, T/C [66]: 9.71% | viability, T/C [67]: 35.1% | viability, T/C [68]: 29.8% | viability, T/C [69]: 24% | viability, T/C [70]: 23.1% | viability, T/C [71]: 17.5% | viability, T/C [72]: 10.5%

C=CC(=O)Nc1cc(Nc2nccc(-c3cn(C)c4ccccc34)n2)c(OC)cc1N(C)CCN(C)C + CCn1c(-c2cccnc2C(C)OC)c2c3cc(ccc31)N1CCOC(CC(NC(=O)C(C(C)C)N(C)C(=O)C3(F)CCN(C(=O)C#CC(C)(C)N(C)C)CC3)C(=O)N3CCCC(N3)C(=O)OCC(C)(C)C2)C1
IC50 (second compound 0.000949 µM): > 1000 nM | IC50 (second compound 0.003 µM): > 1000 nM | IC50 (second compound 0.00949 µM): > 1000 nM | IC50 (second compound 0.03 µM): > 1000 nM | IC50 (second compound 0.0949 µM): > 1000 nM | IC50 (second compound 0.3 µM): > 1000 nM | viability, T/C [1]: 98.4% | viability, T/C [2]: 105% | viability, T/C [3]: 116% | viability, T/C [4]: 103% | viability, T/C [5]: 102% | viability, T/C [6]: 68.2% | viability, T/C [7]: 103% | viability, T/C [8]: 106% | viability, T/C [9]: 99.8% | viability, T/C [10]: 112% | viability, T/C [11]: 110% | viability, T/C [12]: 66.2% | viability, T/C [13]: 100% | viability, T/C [14]: 99.6% | viability, T/C [15]: 108% | viability, T/C [16]: 110% | viability, T/C [17]: 107% | viability, T/C [18]: 80% | viability, T/C [19]: 109% | viability, T/C [20]: 105% | viability, T/C [21]: 100% | viability, T/C [22]: 110% | viability, T/C [23]: 104% | viability, T/C [24]: 62.7% | viability, T/C [25]: 105% | viability, T/C [26]: 110% | viability, T/C [27]: 111% | viability, T/C [28]: 112% | viability, T/C [29]: 103% | viability, T/C [30]: 66.9% | viability, T/C [31]: 97.1% | viability, T/C [32]: 104% | viability, T/C [33]: 95.9% | viability, T/C [34]: 89.9% | viability, T/C [35]: 97.2% | viability, T/C [36]: 59%

Reference: PubChem BioAssay AID2060898 (Molecular Pharmacology Branch, DTP, NCI, 2025)
